{
  "source": "patent US8614230B2",
  "about": "“Derivatives of the aminated hydroxyquinoline class for treating cancers” (Biopharmed, priority 2007, dated 2013)",
  "key": {"[1]": {"test_system": "KB cells", "assay": "Cytotoxicity / cell viability on KB cells (colony-forming assay)", "format": "cell-based, human", "settings": "for IC50: Homo sapiens, KB, read-out: Cytotoxicity on KB cells (IC50)", "procedure": "Cancerous KB cells are also considered, to determine the cell viability (or survival rate). This cell viability is determined according to the teaching of Nicholson K. M. et al., British Journal of Cancer, 1999, 81, 423-430.\nKB cells are human carcinoma cell lines, KB-3-1. These cells are maintained in a culture medium, “Dulbecco's modified Eagle's medium” (DMEM—Sigma), which contains 0.11 g/l of sodium pyruvate and 4.5 g/l of glucose, supplemented with 10% (v/v) fetal calf serum, penicillin (32 μg/ml) and streptomycin (50 μg/ml). The cells are cultured as monolayers and are incubated at 37° C. in a humid atmosphere (95% air/5% CO2).\n(§1) The preceding KB cells are then incubated in 6- or 96-well plates in the presence of the test compounds of the invention, dissolved in dimethyl sulfoxide (DMSO). The content of surviving cells is measured by the “colony-forming assay” test, in which the cells are redistributed at a density of 100 to 300 cells per well in 24-well plates, for a period of 8 days, and are then stained with Leishman's reagent (0.2% in methanol). The colonies of more than 50 cells are counted visually under a microscope, the survival rate being expressed on the colonies formed in the presence of the compounds of the invention relative to cell colonies not treated with said compounds. The determination of the IC50 values (concentration of compounds in the reaction medium for which 50% of the tested tumor cells survived the treatment) enables comparison of the efficacy of these compounds."}, "[2]": {"test_system": "U87/GFP cells", "assay": "Antiproliferative effect on U87/GFP cells (flash cytometry)", "format": "cell-based, human", "procedure": "For the U-87/GFP cells, the control of cell proliferation and migration in the presence of the compounds (I) of the invention is performed via a colorimetric method (MTS) and is performed according to known standard protocols. The methodologies implemented use flash cytometry (Trophos S.A., Marseilles, France). The flash cytometry technique involves fluorescence, which consists of irradiating a compound at a set wavelength and of recording the fluorescence emitted at another wavelength. This technique is performed with a flash cytometer and adapted for 96-well test plates. The excitation and emission wavelengths in the context of use of this fluorescence are located in the 485-495 nm range. The measured fluorescence expresses the amount of cells surviving after treatment with the compounds of the invention. The publications by Luby-Phelps K. et al., J. Histochemistry and Cytometry, 2003, 51, 271-274 and Modarai B. et al., Circulation, 2005, 111, 2645-2653 may be mentioned by way of reference for the above methods.\nThe cells of the U87/GFP lines are cultured in 96-well plates according to a standard methodology described by Bajetto et al., Neurochemistry International, 2006, 43, 31-38 in the presence of different concentrations of the compounds of the invention.\nThe cell proliferation is determined and quantified according to standard methods known to those skilled in the art. A 100% proliferation is attributed to the untreated cells and a percentage less than 100% is obtained when the same cells are treated with the compounds of the invention.\n(§2) The cell proliferation and migration are determined by imaging using a flash cytometer (Trophos S.A., Marseilles, France), and the calculations are performed using the “Metamorph 4.6” imaging signal processing software (Molecular Devices, USA), the use of which, which is known in the field, makes it possible to determine the above two effects independently of each other."}, "[3]": {"test_system": "U87/GFP cells", "assay": "Antimigratory effect on U87/GFP cells (scratch technique)", "format": "cell-based, human", "procedure": "The determination of the antimigratory activity of the compounds (I) of the invention on these same cell lines, cultured in MEM medium (Minimum Essential Medium) is performed via the “scratch” technique that consists in scratching a cell lawn using a micropipette cone. By comparison with these same cells not containing the compounds of the invention, the antimigratory effect is determined. A 100% migration is attributed to the untreated cells, whereas, as a function of the concentration of the compounds (I) of the invention, total stoppage of migration is determined by observation of the “scratch” remaining unfilled by the cell migration, by means of computer software.\nas §2"}, "[4]": {"test_system": "HTC116", "assay": "Cytotoxicity IC50 on HTC116 cells", "format": "cell-based", "settings": "Homo sapiens", "procedure": "as §1\n(§3) Table 4 presents the results of the IC50 (cytotoxicity) on different cell lines, according to the protocol described previously, obtained for compounds I14 and I20."}, "[5]": {"test_system": "HTC15", "assay": "Cytotoxicity IC50 on HTC15 cells", "format": "cell-based", "settings": "Homo sapiens", "procedure": "as §1, §3"}, "[6]": {"test_system": "MCF7", "assay": "Cytotoxicity IC50 on MCF7 cells", "format": "cell-based", "settings": "Homo sapiens", "procedure": "as §1, §3"}, "[7]": {"test_system": "MCF7R", "assay": "Cytotoxicity IC50 on MCF7R cells", "format": "cell-based", "settings": "Homo sapiens", "procedure": "as §1, §3"}, "[8]": {"test_system": "OV3", "assay": "Cytotoxicity IC50 on OV3 cells", "format": "cell-based", "settings": "Homo sapiens", "procedure": "as §1, §3"}, "[9]": {"test_system": "PC3", "assay": "Cytotoxicity IC50 on PC3 cells", "format": "cell-based", "settings": "Homo sapiens, PC-3", "procedure": "as §1, §3"}, "[10]": {"test_system": "A549", "assay": "Cytotoxicity IC50 on A549 cells", "format": "cell-based", "settings": "Homo sapiens", "procedure": "as §1, §3"}, "[11]": {"test_system": "SF268", "assay": "Cytotoxicity IC50 on SF268 cells", "format": "cell-based", "settings": "Homo sapiens, SF-268", "procedure": "as §1, §3"}, "[12]": {"test_system": "HL60", "assay": "Cytotoxicity IC50 on HL60 cells", "format": "cell-based", "settings": "Homo sapiens, HL-60", "procedure": "as §1, §3"}, "[13]": {"test_system": "K562", "assay": "Cytotoxicity IC50 on K562 cells", "format": "cell-based", "settings": "Homo sapiens", "procedure": "as §1, §3"}, "[14]": {"test_system": "HepG2", "assay": "Cytotoxicity IC50 on HepG2 cells", "format": "cell-based", "settings": "Homo sapiens", "procedure": "as §1, §3"}, "[15]": {"test_system": "caspases 3/7", "assay": "Activation of caspases 3/7 in HL60 cells", "format": "cell-based, human", "settings": "48 hours", "procedure": "(§4) In this example, in order to show the role of compounds I14 and I20 in this effect, specific products were used: DEVD for caspases 3/7, IEDT for caspases 8, and LEHD for caspases 9. Moreover, colchicine was used as reference compound that induces this activity of caspases. I14 and I20 were tested at three concentrations: 1 μM, 0.1 μM and 0.01 μM.\n(§5) The experiments were performed by placing I14 and I20 in contact with HL60 cells for 48 hours, according to the standard protocol described by Margolin et al., J. Biol. Chem. (1997), 272, p. 7223, using standard commercially available diagnostic kits (Calbiochem, USA)."}, "[16]": {"test_system": "caspases 8", "assay": "Activation of caspases 8 in HL60 cells", "format": "cell-based, human", "settings": "48 hours, 1 μM, 0.1 μM and 0.01 μM", "procedure": "as §4, §5"}, "[17]": {"test_system": "caspases 9", "assay": "Activation of caspases 9 in HL60 cells", "format": "cell-based, human", "settings": "48 hours, 1 μM, 0.1 μM and 0.01 μM", "procedure": "as §4, §5"}},
  "note": "Like-named read-outs stand apart in the source and are kept apart here.",
  "data": [
    {"smiles": "Cc1ccc(CN(Cc2ccc(O)c3ncccc23)c2ccc(O)c3ncccc23)cc1", "note": "[I14, 5-(((8-hydroxyquinolin-5-yl)(4-methylbenzyl)amino)methyl)quinolin-8-ol]", "values": [
      {"measurement": "IC50", "setting": "[1]; first value of two experiments performed in parallel", "value": 2.6, "unit": "nM"},
      {"measurement": "IC50", "setting": "[1]; second value of two experiments performed in parallel", "value": 1.4, "unit": "nM"},
      {"measurement": "Cytotoxicity on KB cells (percentage inhibition of cell viability)", "setting": "[1]; at 1 μM, relative to reference without compound", "value": 90, "unit": "% at 1 μM"},
      {"measurement": "inhibition at 0.5 µM", "setting": "[2]; Homo sapiens, at 0.5 μM, read-out: Antiproliferative effect on U87/GFP cells: percentage inhibition", "value": 65, "unit": "%"},
      {"measurement": "IC50", "setting": "[2]; concentration giving 65% inhibition of proliferation", "value": 500, "unit": "nM"},
      {"measurement": "inhibition at 0.5 µM", "setting": "[3]; Homo sapiens, at 0.5 μM, read-out: Antimigratory effect on U87/GFP cells: percentage inhibition", "value": 40, "unit": "%"},
      {"measurement": "IC50", "setting": "[3]; concentration giving 40% inhibition of migration", "value": 500, "unit": "nM"},
      {"measurement": "IC50", "setting": "[4]", "value": "3.2 ± 1.2", "unit": "nM"},
      {"measurement": "IC50", "setting": "[5]", "value": "6 ± 7.3", "unit": "nM"},
      {"measurement": "IC50", "setting": "[6]", "value": "5.4 ± 0.9", "unit": "nM"},
      {"measurement": "IC50", "setting": "[7]", "value": "37.3 ± 28", "unit": "nM"},
      {"measurement": "IC50", "setting": "[8]", "value": "8 ± 0.4", "unit": "nM"},
      {"measurement": "IC50", "setting": "[9]", "value": "343 ± 125", "unit": "nM"},
      {"measurement": "IC50", "setting": "[10]", "value": "4.3 ± 0.1", "unit": "nM"},
      {"measurement": "IC50", "setting": "[11]", "value": "178 ± 83", "unit": "nM"},
      {"measurement": "IC50", "setting": "[12]", "value": "32.7 ± 6.6", "unit": "nM"},
      {"measurement": "IC50", "setting": "[13]", "value": "40.8 ± 22", "unit": "nM"},
      {"measurement": "IC50", "setting": "[14]", "value": "52.1 ± 14.5", "unit": "nM"},
      {"measurement": "effect on the activation of caspases 3/7", "setting": "[15]; 0.01 μM", "value": "neither 114 nor 120 has an effect"},
      {"measurement": "effect on the activation of caspases 3/7", "setting": "[15]; 1 μM and 0.1 μM", "value": "strong effect"},
      {"measurement": "effect on the activation of caspases 8", "setting": "[16]", "value": "no effect"},
      {"measurement": "effect on the activation of caspases 9", "setting": "[17]", "value": "no effect"}
    ]}
  ]
}
